From paper PMC7156724, “Potent BRD4 inhibitor suppresses cancer cell-macrophage interaction” (Nature Communications, 2020)
Several values for one entry are separate records, joined by “and”; a condition that tells them apart may be missing. Identical values can stand only once.

Tests used:
[1] = system: H526 SCLC tumors; assay: H526 SCLC xenograft tumor growth; type: in vivo, mouse; settings: for Tumor volume: Fig.3a, n=6, individual animals
Excerpt: PO, oral administration; QD, once daily; BID, twice daily. b–d Tumor growth curves for A2780 ovarian tumor (n = 5) (b), TMD8 large B cell lymphoma (n = 6) (c), and B16F10 melanoma (n = 5) (d) bearing mice treated with the indicated compounds once daily for 11-21 days. e, f Tumor growth curves for A375 melanoma (n = 6) (e), and patient-derived xenograft (PDX) of melanoma (n = 5) (f) bearing mice treated with the indicated compounds once daily (5 days on, 2 days off) for 21 days. For d–f, NHWD-870 used is NHWD-870-HCl synthesized using Suzuki coupling route. Data are presented as mean ± SEM in (a, b, d, f) and mean + SEM in (c, e). p values were calculated using two-tailed, unpaired t tests. *p < 0.05; **p < 0.01; ***p < 0.001. Source data are provided as a Source Data file.
(§1) 4–6 weeks old female BALB/c nude mice were used for most experiments, with the exception of 6–8 weeks old female C57BL/6 mice were used for B16F10 experiments, and 6–8 weeks old male BALB/c nude mice and SD rats were used for pharmacokinetic experiments. All animals were purchased from Shanghai SIPPR-Bk Lab Animal Co., Ltd. All animals were housed under a regimen of 12 h light/12 h dark cycles and specific pathogen-free conditions. 5×10^6 NCI-H526, ES-2, MDA-MB231, A2780, A375, B16F10, and TMD-8 cells (0.1 ml) were injected subcutaneously into female nude mice. The melanoma patient-derived xenograft model was derived from a human melanoma sample (BRAF, NARS and NF1 wild type, and p53 mutant) removed from a patient in Xiangya Hospital. Surgically removed tumor fragments were implanted subcutaneously into female NSG mice. When the tumors grew to ~1000 mm^3, they were harvested and cryopreserved or immediately re-implanted for expansion or experiments. Mouse body weight and tumor sizes were measured every 3 days. Once the tumors grew to 150–200 mm^3, mice were treated with the compounds as described in the Figures. 1 × 10^6 A2780 cells (1 ml) were injected into the abdominal cavity of nude mice. Ascitic volume and tumor weight were measured by an electronic balance. All the procedures were evaluated and approved by the Institutional Animal Care and Use Committee of Central South University and Yale University.

[2] = system: ES-2 ovarian cancer; assay: ES-2 ovarian tumor xenograft growth; type: in vivo, mouse; settings: ES-2, 1mg/kg p.o. QD x 21D
Method: as §1
Supplementary Figure 9. […]
PO, oral administration; QD, once daily; BID, twice daily; D, day. (c,d) Tumor growth curves for ES2 ovarian tumor (c), MDA-MB231 breast tumor (d) bearing mice treated with the indicated compounds for 21 days. Compounds were orally administrated once daily. Data are presented as mean ± SEM from 6 different mice. p values were calculated using two-tailed, unpaired t tests.
**, p<0.01; ***, p<0.001. Source data are provided as a Source Data file. […]

**Q.** What does the source list for `Cc1nnn(C)c1-c1cnc2c3c4cnn(C)c4ccc3n([C@H](c3ccccc3)C3CCOCC3)c2c1` [NHWD-870]?
**A.** Tumor volume ([1]; 0.75mg/kg p.o. QD x 21D, day 0): 192.244 mm^3 and 263.88 mm^3 and 212.226 mm^3 and 157.172 mm^3 and 251.256 mm^3 and 74.1662 mm^3; Tumor volume ([1]; 0.75mg/kg p.o. QD x 21D, day 3): 395.966 mm^3 and 556.678 mm^3 and 654.987 mm^3 and 201.421 mm^3 and 423.505 mm^3 and 90.8277 mm^3; Tumor volume ([1]; 0.75mg/kg p.o. QD x 21D, day 7): 723.612 mm^3 and 1124.37 mm^3 and 964.914 mm^3 and 402.947 mm^3 and 655.847 mm^3 and 216.235 mm^3; Tumor volume ([1]; 0.75mg/kg p.o. QD x 21D, day 10): 1123.82 mm^3 and 1337.09 mm^3 and 1219.11 mm^3 and 614.795 mm^3 and 939.345 mm^3 and 324.637 mm^3; Tumor volume ([1]; 0.75mg/kg p.o. QD x 21D, day 14): 1169.07 mm^3 and 1508.45 mm^3 and 1544.25 mm^3 and 755.744 mm^3 and 1018.31 mm^3 and 369.016 mm^3; Tumor volume ([1]; 0.75mg/kg p.o. QD x 21D, day 17): 1563.43 mm^3 and 1842.12 mm^3 and 2108.97 mm^3 and 937.093 mm^3 and 1199.84 mm^3 and 528.17 mm^3; Tumor volume ([1]; 0.75mg/kg p.o. QD x 21D, day 20): 1882.72 mm^3 and 1980.4 mm^3 and 2365.8 mm^3 and 1110.57 mm^3 and 1230.51 mm^3 and 727.098 mm^3; Tumor volume ([1]; 1.5mg/kg p.o. BID x 21D, day 0): 109.221 mm^3 and 224.83 mm^3 and 299.894 mm^3; Tumor volume ([1]; 1.5mg/kg p.o. BID x 21D, day 3): 144.898 mm^3 and 505.755 mm^3; Tumor volume ([1]; 1.5mg/kg p.o. BID x 21D, day 7): 197.484 mm^3 and 503.899 mm^3; Tumor volume ([1]; 1.5mg/kg p.o. BID x 21D, day 10): 131.255 mm^3 and 391.019 mm^3; Tumor volume ([1]; 1.5mg/kg p.o. BID x 21D, day 14): 62.3145 mm^3 and 300.826 mm^3; Tumor volume ([1]; 1.5mg/kg p.o. BID x 21D, day 17): 47.429 mm^3 and 191.773 mm^3; Tumor volume ([1]; 1.5mg/kg p.o. BID x 21D, day 20): 26.6114 mm^3 and 100.415 mm^3 and 135.956 mm^3; Tumor volume ([1]; 1.5mg/kg p.o. QD x 21D, day 0): 70.0321 mm^3 and 190.911 mm^3 and 142.166 mm^3 and 225.589 mm^3 and 289.503 mm^3 and 248.923 mm^3; Tumor volume ([1]; 1.5mg/kg p.o. QD x 21D, day 3): 54.6804 mm^3 and 344.715 mm^3 and 214.258 mm^3 and 388.716 mm^3 and 680.326 mm^3 and 337.153 mm^3; Tumor volume ([1]; 1.5mg/kg p.o. QD x 21D, day 7): 52.3406 mm^3 and 448.169 mm^3 and 304.6 mm^3 and 593.496 mm^3 and 1004.88 mm^3 and 603.12 mm^3; Tumor volume ([1]; 1.5mg/kg p.o. QD x 21D, day 10): 65.7752 mm^3 and 568.076 mm^3 and 360.126 mm^3 and 706.593 mm^3 and 1344.39 mm^3 and 669.797 mm^3; Tumor volume ([1]; 1.5mg/kg p.o. QD x 21D, day 14): 53.8674 mm^3 and 610.408 mm^3 and 386.917 mm^3 and 812.577 mm^3 and 1371.12 mm^3 and 772.943 mm^3; Tumor volume ([1]; 1.5mg/kg p.o. QD x 21D, day 17): 48.5889 mm^3 and 810.7 mm^3 and 443.445 mm^3 and 889.286 mm^3 and 1654.72 mm^3 and 1027.16 mm^3; Tumor volume ([1]; 1.5mg/kg p.o. QD x 21D, day 20): 34.4047 mm^3 and 640.677 mm^3 and 402.424 mm^3 and 852.013 mm^3 and 1472.9 mm^3 and 894.82 mm^3; effect on tumor growth ([1]; H526 SCLC, oral, 3 mg/kg per day or 1.5 mg/kg twice per day, 21 days): regressed established H526 SCLC tumors; % Tumor growth, AVG ([2]; day 0, group AVG): 0%; Tumor volume, AVG ([2]; day 0, group AVG): 182.834 mm^3; % Tumor growth ([2]; day 0, individual animals): 0%; Tumor volume ([2]; day 0, individual animals): 161.981 mm^3 and 208.246 mm^3 and 257.236 mm^3 and 142.384 mm^3 and 223.655 mm^3 and 103.5 mm^3; % Tumor growth, AVG ([2]; day 4, group AVG): 71.8081%; Tumor volume, AVG ([2]; day 4, group AVG): 319.202 mm^3; % Tumor growth ([2]; day 4, individual animals): 19.7778% and 126.134% and 74.5915% and 55.5126% and 76.849% and 77.9831%; Tumor volume ([2]; day 4, individual animals): 194.017 mm^3 and 470.917 mm^3 and 449.112 mm^3 and 221.425 mm^3 and 395.531 mm^3 and 184.213 mm^3; % Tumor growth, AVG ([2]; day 7, group AVG): 143.924%; Tumor volume, AVG ([2]; day 7, group AVG): 449.139 mm^3; % Tumor growth ([2]; day 7, individual animals): 108.101% and 224.596% and 137.285% and 85.7809% and 134.14% and 173.642%; Tumor volume ([2]; day 7, individual animals): 337.084 mm^3 and 675.959 mm^3 and 610.381 mm^3 and 264.522 mm^3 and 523.665 mm^3 and 283.22 mm^3; % Tumor growth, AVG ([2]; day 11, group AVG): 266.816%; Tumor volume, AVG ([2]; day 11, group AVG): 666.569 mm^3; % Tumor growth ([2]; day 11, individual animals): 228.373% and 360.792% and 253.375% and 196.866% and 222.989% and 338.501%; Tumor volume ([2]; day 11, individual animals): 531.902 mm^3 and 959.584 mm^3 and 909.007 mm^3 and 422.689 mm^3 and 722.381 mm^3 and 453.85 mm^3; % Tumor growth, AVG ([2]; day 14, group AVG): 321.081%
